Test results reported in the supplement of paper PMC10627819.

Key:
S. pneumoniae D39V [1] = assay: fitness (endpoint OD595 vs no drug) (fraction); higher = more growth
Summary of the method: (§1)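 Background-subtracted growth curves were the basis for fitness, taken as the optical density at entry into stationary phase over the robust mean of no-drug control wells. A cap of 1 was applied. The curves came from OD595 readings every 30 min for 14 h at 37 °C, in 384-well plates seeded at OD595 0.01 with 30 µl, or 55 µl for S. pneumoniae.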

B. subtilis 168 [2] = assay: as above
Summary of the method: as §1

S. pneumoniae D39V [3] = assay: Bliss interaction score (quartile over a dose matrix) (fitness difference); higher = more antagonism (negative = synergy)
Summary of the method: (§2)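 Combination data were used to infer fitness under each single drug. Fitness is the OD595 at entry into stationary phase divided by the robust mean of the plate's no-drug wells, with a cap of 1. The Bliss score is the observed minus the expected product fitness, summarised by quartiles over technical, biological and donor/recipient replicates.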

B. subtilis 168 [4] = assay: as above
Summary of the method: as §2

S. aureus DSM 20231 = assay: as above
Summary of the method: as §2

S. aureus Newman = assay: as above
Summary of the method: as §2
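Wherever Bliss interaction score (quartile over a dose matrix) is given: first quartile when negative (synergy) and third quartile when positive (antagonism).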

For `CCCCCCCCCC(=O)N[C@@H](Cc1c[nH]c2ccccc12)C(=O)N[C@H](CC(N)=O)C(=O)N[C@@H](CC(=O)O)C(=O)N[C@@H]1C(=O)NCC(=O)N[C@@H](CCCN)C(=O)N[C@@H](CC(=O)O)C(=O)N[C@H](C)C(=O)N[C@@H](CC(=O)O)C(=O)NCC(=O)N[C@H](CO)C(=O)N[C@@H]([C@H](C)CC(=O)O)C(=O)N[C@@H](CC(=O)c2ccccc2N)C(=O)O[C@@H]1C` [Daptomycin] + CN(C)C(=O)C(CCN1CCC(O)(c2ccc(Cl)cc2)CC1)(c1ccccc1)c1ccccc1 [Loperamide], the fitness (S. pneumoniae D39V [1]; first compound 1 µg/mL, partner 17.14 µg/mL) was 0.888, the fitness (S. pneumoniae D39V [1]; first compound 1 µg/mL, partner 20 µg/mL) was ≥ 1 and the fitness (S. pneumoniae D39V [1]; first compound 1 µg/mL, partner 34.28 µg/mL) was 0.877. For the same compound, the fitness (S. pneumoniae D39V [1]; first compound 1 µg/mL, partner 40 µg/mL) was ≥ 1, the fitness (S. pneumoniae D39V [1]; first compound 1 µg/mL, partner 68.57 µg/mL, one replicate) was 0.856 and the fitness (S. pneumoniae D39V [1]; first compound 1 µg/mL, partner 80 µg/mL) was 0.225. The fitness (S. pneumoniae D39V [1]; first compound 2 µg/mL, partner 17.14 µg/mL) was 0.951, the fitness (S. pneumoniae D39V [1]; first compound 2 µg/mL, partner 20 µg/mL) was ≥ 1 and the fitness (S. pneumoniae D39V [1]; first compound 2 µg/mL, partner 34.28 µg/mL) was 0.919. For the same compound, the fitness (S. pneumoniae D39V [1]; first compound 2 µg/mL, partner 40 µg/mL) was ≥ 1, the fitness (S. pneumoniae D39V [1]; first compound 2 µg/mL, partner 68.57 µg/mL, one replicate) was 0.858 and the fitness (S. pneumoniae D39V [1]; first compound 2 µg/mL, partner 80 µg/mL) was 0.153. The fitness (S. pneumoniae D39V [1]; first compound 4 µg/mL, partner 17.14 µg/mL) was 0.917, the fitness (S. pneumoniae D39V [1]; first compound 4 µg/mL, partner 20 µg/mL) was ≥ 1 and the fitness (S. pneumoniae D39V [1]; first compound 4 µg/mL, partner 34.28 µg/mL) was 0.918. For the same compound, the fitness (S. pneumoniae D39V [1]; first compound 4 µg/mL, partner 40 µg/mL) was ≥ 1, the fitness (S. pneumoniae D39V [1]; first compound 4 µg/mL, partner 68.57 µg/mL, one replicate) was 0.887 and the fitness (S. pneumoniae D39V [1]; first compound 4 µg/mL, partner 80 µg/mL) was 0.196. The fitness (B. subtilis 168 [2]; first compound 0.125 µg/mL, partner 25 µg/mL) was 0.862, the fitness (B. subtilis 168 [2]; first compound 0.125 µg/mL, partner 100 µg/mL) was 0.0281 and the fitness (B. subtilis 168 [2]; first compound 0.25 µg/mL, partner 25 µg/mL) was 0.802. It also gave a fitness (B. subtilis 168 [2]; first compound 0.25 µg/mL, partner 100 µg/mL) of 0.0213, a fitness (B. subtilis 168 [2]; first compound 0.5 µg/mL, partner 25 µg/mL) of 0.669 and a fitness (B. subtilis 168 [2]; first compound 0.5 µg/mL, partner 100 µg/mL) of 0.0107. It also gave a fitness (B. subtilis 168 [2]; first compound 1 µg/mL, partner 25 µg/mL, one replicate) of 0.191, a fitness (B. subtilis 168 [2]; first compound 1 µg/mL, partner 50 µg/mL, one replicate) of 0.0409 and a fitness (B. subtilis 168 [2]; first compound 1 µg/mL, partner 100 µg/mL, one replicate) of 0.0167. It also gave a Bliss interaction score (S. pneumoniae D39V [3]) of 0.075, a Bliss interaction score (B. subtilis 168 [4]) of 0.136 and a Bliss interaction score (S. aureus DSM 20231) of 0.133. For the same compound, the Bliss interaction score (S. aureus Newman) was 0.0375.

Work on `CCCCCCCCCC(=O)N[C@@H](Cc1c[nH]c2ccccc12)C(=O)N[C@H](CC(N)=O)C(=O)N[C@@H](CC(=O)O)C(=O)N[C@@H]1C(=O)NCC(=O)N[C@@H](CCCN)C(=O)N[C@@H](CC(=O)O)C(=O)N[C@H](C)C(=O)N[C@@H](CC(=O)O)C(=O)NCC(=O)N[C@H](CO)C(=O)N[C@@H]([C@H](C)CC(=O)O)C(=O)N[C@@H](CC(=O)c2ccccc2N)C(=O)O[C@@H]1C` [Daptomycin] + CO[C@@H]1[C@@H](OC(N)=O)[C@@H](O)[C@H](Oc2ccc3c(O)c(NC(=O)c4ccc(O)c(CC=C(C)C)c4)c(=O)oc3c2C)OC1(C)C [Novobiocin] yielded a fitness (B. subtilis 168 [2]; first compound 0.125 µg/mL, partner 0.0125 µg/mL) of 0.94, a fitness (B. subtilis 168 [2]; first compound 0.125 µg/mL, partner 0.025 µg/mL) of 0.916 and a fitness (B. subtilis 168 [2]; first compound 0.125 µg/mL, partner 0.05 µg/mL) of 0.968. It also gave a fitness (B. subtilis 168 [2]; first compound 0.125 µg/mL, partner 0.125 µg/mL, one replicate) of 0.958, a fitness (B. subtilis 168 [2]; first compound 0.125 µg/mL, partner 0.25 µg/mL, one replicate) of 0.954 and a fitness (B. subtilis 168 [2]; first compound 0.125 µg/mL, partner 0.5 µg/mL, one replicate) of 0.649. For the same compound, the fitness (B. subtilis 168 [2]; first compound 0.25 µg/mL, partner 0.0125 µg/mL) was 0.981, the fitness (B. subtilis 168 [2]; first compound 0.25 µg/mL, partner 0.025 µg/mL) was 0.94 and the fitness (B. subtilis 168 [2]; first compound 0.25 µg/mL, partner 0.05 µg/mL) was 0.984. For the same compound, the fitness (B. subtilis 168 [2]; first compound 0.25 µg/mL, partner 0.1 µg/mL, one replicate) was 0.96, the fitness (B. subtilis 168 [2]; first compound 0.25 µg/mL, partner 0.125 µg/mL, one replicate) was ≥ 1 and the fitness (B. subtilis 168 [2]; first compound 0.25 µg/mL, partner 0.2 µg/mL, one replicate) was 0.957. For the same compound, the fitness (B. subtilis 168 [2]; first compound 0.25 µg/mL, partner 0.25 µg/mL, one replicate) was ≥ 1, the fitness (B. subtilis 168 [2]; first compound 0.25 µg/mL, partner 0.5 µg/mL, one replicate) was 0.579 and the fitness (B. subtilis 168 [2]; first compound 0.5 µg/mL, partner 0.0125 µg/mL) was 0.899. It also gave a fitness (B. subtilis 168 [2]; first compound 0.5 µg/mL, partner 0.025 µg/mL) of 0.867, a fitness (B. subtilis 168 [2]; first compound 0.5 µg/mL, partner 0.05 µg/mL) of 0.902 and a fitness (B. subtilis 168 [2]; first compound 0.5 µg/mL, partner 0.1 µg/mL, one replicate) of 0.94. The fitness (B. subtilis 168 [2]; first compound 0.5 µg/mL, partner 0.125 µg/mL, one replicate) was ≥ 1, the fitness (B. subtilis 168 [2]; first compound 0.5 µg/mL, partner 0.2 µg/mL, one replicate) was 0.936 and the fitness (B. subtilis 168 [2]; first compound 0.5 µg/mL, partner 0.25 µg/mL, one replicate) was 0.965. For the same compound, the fitness (B. subtilis 168 [2]; first compound 0.5 µg/mL, partner 0.5 µg/mL, one replicate) was 0.288, the fitness (B. subtilis 168 [2]; first compound 1 µg/mL, partner 0.05 µg/mL, one replicate) was 0.738 and the fitness (B. subtilis 168 [2]; first compound 1 µg/mL, partner 0.1 µg/mL, one replicate) was 0.791. The fitness (B. subtilis 168 [2]; first compound 1 µg/mL, partner 0.2 µg/mL, one replicate) was 0.759, the Bliss interaction score (S. pneumoniae D39V [3]) was 0.0661 and the Bliss interaction score (B. subtilis 168 [4]) was 0.0788. For the same compound, the Bliss interaction score (S. aureus DSM 20231) was 0.0439 and the Bliss interaction score (S. aureus Newman) was 0.0984.
